In ChEMBL document CHEMBL3885861, “Open TG-GATES”:

Species: Rattus norvegicus
Experiment: Open TG-GATES - Regimen: Single
Format: toxicity, organism-based, Sprague-Dawley
Design: regimen Single, gender Male, age 6 weeks
Conditions: in vivo, po, 0 mg/kg, route gavage, dose level Control; for APTT / Bas / Eos / Fbg / Hb / Ht / Lym / MCH / MCHC / MCV / Mono / Neu / PT / Plat / RBC / Ret / WBC: tissue Blood; for KIDNEY_L / KIDNEY_R / KIDNEY_TOTAL: tissue Kidney; for LIVER: tissue Liver; for A/G / ALP / ALT / AST / BUN / CRE / Ca / Cl / DBIL / GLC / IP / K / LDH / Na / PL / RALB / TBIL / TC / TG / TP / gamma-GTP: tissue Plasma

SMILES: COc1ccc(Cl)cc1C(=O)NCCc1ccc(S(=O)(=O)NC(=O)NC2CCCCC2)cc1 [GLYBURIDE]
- TERMINAL_BW (3 h): 216 g
- APTT (3 h): 19.2 s
- Bas (3 h): 0%
- Eos (3 h): 1%
- Fbg (3 h): 221.2 mg/dL
- Hb (3 h): 13.2 g/dL
- Ht (3 h): 40.6%
- Lym (3 h): 70.4%
- MCH (3 h): 21 pg
- MCHC (3 h): 32.4%
- MCV (3 h): 64.7 fL
- Mono (3 h): 3%
- Neu (3 h): 24.4%
- PT (3 h): 12.3 s
- Plat (3 h): 125.5 x10_4/uL
- RBC (3 h): 628.8 x10_4/ul
- Ret (3 h): 8%
- WBC (3 h): 84.1 x10_2/uL
- KIDNEY_L (3 h): 1 g
- KIDNEY_R (3 h): 1 g
- KIDNEY_TOTAL (3 h): 1.9 g
- LIVER (3 h): 10.1 g
- A/G (3 h): 1.7
- ALP (3 h): 1085 IU/L
- ALT (3 h): 41.8 IU/L
- AST (3 h): 70.8 IU/L
- BUN (3 h): 11.8 mg/dL
- CRE (3 h): 0.4 mg/dL
- Ca (3 h): 11 mg/dL
- Cl (3 h): 104 meq/L
- DBIL (3 h): 0.2 mg/dL
- GLC (3 h): 191.6 mg/dL
- IP (3 h): 8.8 mg/dL
- K (3 h): 3.8 meq/L
- LDH (3 h): 166.6 IU/L
- Na (3 h): 141 meq/L
- PL (3 h): 187.6 mg/dL
- RALB (3 h): 3.5 g/dL
- TBIL (3 h): 0.2 mg/dL
- TC (3 h): 88 mg/dL
- TG (3 h): 160.2 mg/dL
- TP (3 h): 5.6 g/dL
- gamma-GTP (3 h): 0.8 IU/L
- TERMINAL_BW (6 h): 212.5 g
- APTT (6 h): 19.8 s
- Bas (6 h): 0%
- Eos (6 h): 1%
- Fbg (6 h): 228.6 mg/dL
- Hb (6 h): 13.6 g/dL
- Ht (6 h): 42.2%
- Lym (6 h): 70.2%
- MCH (6 h): 20.1 pg
- MCHC (6 h): 32.2%
- MCV (6 h): 62.4 fL
- Mono (6 h): 3.4%
- Neu (6 h): 24.2%
- PT (6 h): 12.5 s
- Plat (6 h): 122.5 x10_4/uL
- RBC (6 h): 676.8 x10_4/ul
- Ret (6 h): 7.8%
- WBC (6 h): 87.5 x10_2/uL
- KIDNEY_L (6 h): 1 g
- KIDNEY_R (6 h): 1 g
- KIDNEY_TOTAL (6 h): 2 g
- LIVER (6 h): 9.5 g
- A/G (6 h): 1.6
- ALP (6 h): 1140.4 IU/L
- ALT (6 h): 35 IU/L
- AST (6 h): 67.4 IU/L
- BUN (6 h): 8.8 mg/dL
- CRE (6 h): 0.4 mg/dL
- Ca (6 h): 10.9 mg/dL
- Cl (6 h): 103 meq/L
- DBIL (6 h): 0.092 mg/dL
- GLC (6 h): 207.2 mg/dL
- IP (6 h): 9.8 mg/dL
- K (6 h): 3.6 meq/L
- LDH (6 h): 159.4 IU/L
- Na (6 h): 141.2 meq/L
- PL (6 h): 148.6 mg/dL
- RALB (6 h): 3.5 g/dL
- TBIL (6 h): 0.2 mg/dL
- TC (6 h): 77.2 mg/dL
- TG (6 h): 65.2 mg/dL
- TP (6 h): 5.6 g/dL
- gamma-GTP (6 h): 1 IU/L
- TERMINAL_BW (9 h): 213.3 g
- APTT (9 h): 19.1 s
- Bas (9 h): 0%
- Eos (9 h): 1%
- Fbg (9 h): 220 mg/dL
- Hb (9 h): 13 g/dL
- Ht (9 h): 39.7%
- Lym (9 h): 77%
- MCH (9 h): 20.8 pg
- MCHC (9 h): 32.7%
- MCV (9 h): 63.6 fL
- Mono (9 h): 2.2%
- Neu (9 h): 18.8%
- PT (9 h): 12.7 s
- Plat (9 h): 133.8 x10_4/uL
- RBC (9 h): 625.4 x10_4/ul
- Ret (9 h): 8.1%
- WBC (9 h): 102.8 x10_2/uL
- KIDNEY_L (9 h): 0.9 g
- KIDNEY_R (9 h): 0.9 g
- KIDNEY_TOTAL (9 h): 1.9 g
- LIVER (9 h): 8.8 g
- A/G (9 h): 1.7
- ALP (9 h): 1066.8 IU/L
- ALT (9 h): 30.8 IU/L
- AST (9 h): 61.6 IU/L
- BUN (9 h): 10.8 mg/dL
- CRE (9 h): 0.4 mg/dL
- Ca (9 h): 10.1 mg/dL
- Cl (9 h): 102.2 meq/L
- DBIL (9 h): 0.09 mg/dL
- GLC (9 h): 216.2 mg/dL
- IP (9 h): 11.1 mg/dL
- K (9 h): 3.5 meq/L
- LDH (9 h): 125.8 IU/L
- Na (9 h): 140.8 meq/L
- PL (9 h): 137.4 mg/dL
- RALB (9 h): 3.4 g/dL
- TBIL (9 h): 0.1 mg/dL
- TC (9 h): 72.8 mg/dL
- TG (9 h): 52.2 mg/dL
- TP (9 h): 5.4 g/dL
- gamma-GTP (9 h): 1.6 IU/L
- TERMINAL_BW (24 h): 226.7 g
- APTT (24 h): 18.3 s
- Bas (24 h): 0.4%
- Eos (24 h): 1%
- Fbg (24 h): 218.6 mg/dL
- Hb (24 h): 13.2 g/dL
- Ht (24 h): 38%
- Lym (24 h): 77%
- MCH (24 h): 21.7 pg
- MCHC (24 h): 34.7%
- MCV (24 h): 62.4 fL
- Mono (24 h): 2.4%
- Neu (24 h): 18.6%
- PT (24 h): 12.5 s
- Plat (24 h): 126.2 x10_4/uL
- RBC (24 h): 609.6 x10_4/ul
- Ret (24 h): 7.7%
- WBC (24 h): 105.9 x10_2/uL
- KIDNEY_L (24 h): 1 g
- KIDNEY_R (24 h): 1 g
- KIDNEY_TOTAL (24 h): 2 g
- LIVER (24 h): 10.9 g
- A/G (24 h): 1.5
- ALP (24 h): 1024.2 IU/L
- ALT (24 h): 32.2 IU/L
- AST (24 h): 61.4 IU/L
- BUN (24 h): 16.4 mg/dL
- CRE (24 h): 0.4 mg/dL
- Ca (24 h): 10.7 mg/dL
- Cl (24 h): 102.2 meq/L
- DBIL (24 h): 0.1 mg/dL
- GLC (24 h): 215.6 mg/dL
- IP (24 h): 7.5 mg/dL
- K (24 h): 3.7 meq/L
- LDH (24 h): 189.6 IU/L
- Na (24 h): 141.2 meq/L
- PL (24 h): 146.2 mg/dL
- RALB (24 h): 3.3 g/dL
- TBIL (24 h): 0.2 mg/dL
- TC (24 h): 73.2 mg/dL
- TG (24 h): 97.8 mg/dL
- TP (24 h): 5.4 g/dL
- gamma-GTP (24 h): 1.4 IU/L
